Reference: patent US20220370406A1, “METHOD OF TREATING STIMULANT USE DISORDER USING A COMBINATION OF TOPIRAMATE AND PHENTERMINE” (University of Kentucky Research Foundation, priority 2019, published 2022)
Like-named read-outs stand apart in the source and are kept apart here.

Legend:
[1] = test system: participants with cocaine use disorder; test: Experimental sessions: cardiovascular measures after cocaine sampling dose during maintenance; details: maintenance on the drug alone
[2] = test system: participants with cocaine use disorder; test: Experimental sessions: subjective effects questionnaires after cocaine sampling dose during maintenance; details: for subjective effects of cocaine: maintenance on the drug alone; for cocaine-increased ratings of High, Like Drug, Active-Alert-Energetic, Rush and Stimulant Subscale: maintenance on topiramate and phentermine, alone or combined
[3] = test system: participants with cocaine use disorder; test: Cocaine self-administration on progressive-ratio task during topiramate-phentermine maintenance; type: in vivo, human
Protocol: The maintenance period for each condition was at least seven (7) days. Participants randomized to 50 or 100 mg/day topiramate initially received 12.5 and 25 mg immediate release topiramate, respectively, twice daily (0700 and 1900 hours) for three (3) days. Participants then received their target dose (i.e., 25 and 50 mg BID, respectively) for four (4) days prior to completing the first block of experimental sessions. This dosing regimen allowed participants to acclimate to a lower topiramate dose before receiving their target dose and was the rationale for topiramate being a between-subject variable. Participants randomized to placebo were also maintained for seven (7) days to maintain the study blind, but their capsules contained only cornstarch.
Phentermine (0, 15, 30 mg) was administered once daily at 0700 hours. Within each topiramate cohort, the phentermine doses were tested in ascending order such that the lower dose (15 mg/day) was tested prior to the higher dose (30 mg/day). This dosing sequence was violated twice due to oversight (i.e., one subject in the 0 mg/day topiramate group and the other in the 50 mg/day topiramate group). Both of these participants were initially maintained on 30 mg/day phentermine.
After at least seven (7) days of maintenance on the first topiramate-phentermine condition, participants completed a block of three experimental sessions described below. Maintenance on the assigned condition continued during each block of experimental sessions. Upon completion of the first block of experimental sessions, participants continued maintenance on the assigned topiramate condition, while the phentermine dose was changed to the next condition. Maintenance on the second topiramate-phentermine condition also lasted at least seven (7) days before the next block of experimental sessions was completed. […]
The reinforcing effects of cocaine during maintenance on the topiramate-phentermine combinations were assessed using a progressive-ratio task. […]

[4] = test system: participants with cocaine use disorder; details: in vivo

In the case of CC(C)(N)Cc1ccccc1 [phentermine], the “cardiovascular effects of cocaine” value [1] is reported as “did not significantly alter”, the “subjective effects of cocaine” value [2] is reported as “did not significantly alter” and the “cocaine-increased ratings of High, Like Drug, Active-Alert-Energetic, Rush and Stimulant Subscale” value [2] is reported as “did not significantly alter”. The cocaine self-administration ([3]; Phentermine alone) was “did not significantly reduce” and the “reinforcing effects of cocaine” value ([3]; maintenance on the drug alone) was “did not significantly alter”.

In the case of CC1(C)O[C@@H]2[C@@H](CO[C@@]3(COS(N)(=O)=O)OC(C)(C)O[C@@H]23)O1 [topiramate], the “cardiovascular effects of cocaine” value [4] is reported as “did not alter”, the “subjective effects of cocaine” value [2] is reported as “did not alter” and the “cocaine-increased ratings of High, Like Drug, Active-Alert-Energetic, Rush and Stimulant Subscale” value [2] is reported as “did not significantly alter”. The “reduction of cocaine self-administration” value ([3]; cocaine 40 mg, Topiramate alone (100 mg/day)) was 47%.
